Results reported in PubChem BioAssay AID2060901 (Molecular Pharmacology Branch, DTP, NCI, 2025).

System: 422866-222-R5-J1-PDC complex spheroids viability
Experiment: Anticancer human tumor 422866-222-R5-J1-PDC patient-derived pancreatic adenocarcinoma cell line growth inhibition [RAS]
Settings: for viability, T/C: stronger effect = lower value
Summary of the method: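 Agents were tested in combination matrices in half-log decrements from a top concentration at or near clinical Cmax (10 microM if undetermined). Targets were multi-cell spheroids of tumour lines plus HUVEC and MSC stromal cells.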

[1] = curve of first compound, second compound 0.0316 µM
[2] = curve of first compound, second compound 0.1 µM
[3] = curve of first compound, second compound 0.316 µM
[4] = curve of first compound, second compound 1 µM
[5] = second compound 0.0316 µM, first compound 0.00316 µM
[6] = second compound 0.0316 µM, first compound 0.01 µM
[7] = second compound 0.0316 µM, first compound 0.0316 µM
[8] = second compound 0.0316 µM, first compound 0.1 µM
[9] = second compound 0.0316 µM, first compound 0.316 µM
[10] = second compound 0.0316 µM, first compound 1 µM
[11] = second compound 0.1 µM, first compound 0.00316 µM
[12] = second compound 0.1 µM, first compound 0.01 µM
[13] = second compound 0.1 µM, first compound 0.0316 µM
[14] = second compound 0.1 µM, first compound 0.1 µM
[15] = second compound 0.1 µM, first compound 0.316 µM
[16] = second compound 0.1 µM, first compound 1 µM
[17] = second compound 0.316 µM, first compound 0.00316 µM
[18] = second compound 0.316 µM, first compound 0.01 µM
[19] = second compound 0.316 µM, first compound 0.0316 µM
[20] = second compound 0.316 µM, first compound 0.1 µM
[21] = second compound 0.316 µM, first compound 0.316 µM
[22] = second compound 0.316 µM, first compound 1 µM
[23] = second compound 1 µM, first compound 0.00316 µM
[24] = second compound 1 µM, first compound 0.01 µM
[25] = second compound 1 µM, first compound 0.0316 µM
[26] = second compound 1 µM, first compound 0.1 µM
[27] = second compound 1 µM, first compound 0.316 µM
[28] = second compound 1 µM, first compound 1 µM
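Further: spheroids exposed to compounds for 7 days.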
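Wherever viability, T/C is given: 100% = DMSO vehicle control viability.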

O=C(c1ccc(F)c(F)c1Nc1ccc(I)cc1F)N1CC(O)([C@@H]2CCCCN2)C1 + C=CC(=O)N1CCN(c2nc(OCC3CCCN3C)nc3c(F)c(-c4nc(N)cc(C)c4C(F)(F)F)c(Cl)cc23)C(C)C1 was tested, and the IC50 (curve of first compound, second compound 0.00316 µM) was under 3.16 nM, the IC50 (curve of first compound, second compound 0.01 µM) was under 3.16 nM and the IC50 [1] was under 3.16 nM. The IC50 [2] was under 3.16 nM, the IC50 [3] was under 3.16 nM and the IC50 [4] was under 3.16 nM. It also gave a viability, T/C (second compound 0.00316 µM, first compound 0.00316 µM) of 27.3%, a viability, T/C (second compound 0.00316 µM, first compound 0.01 µM) of 29% and a viability, T/C (second compound 0.00316 µM, first compound 0.0316 µM) of 20.7%. It also gave a viability, T/C (second compound 0.00316 µM, first compound 0.1 µM) of 18.1%, a viability, T/C (second compound 0.00316 µM, first compound 0.316 µM) of 16.6% and a viability, T/C (second compound 0.00316 µM, first compound 1 µM) of 17.1%. It also gave a viability, T/C (second compound 0.01 µM, first compound 0.00316 µM) of 39.6%, a viability, T/C (second compound 0.01 µM, first compound 0.01 µM) of 22.1% and a viability, T/C (second compound 0.01 µM, first compound 0.0316 µM) of 21.8%. It also gave a viability, T/C (second compound 0.01 µM, first compound 0.1 µM) of 15.2%, a viability, T/C (second compound 0.01 µM, first compound 0.316 µM) of 17% and a viability, T/C (second compound 0.01 µM, first compound 1 µM) of 12.9%. For the same compound, the viability, T/C [5] was 28.7%, the viability, T/C [6] was 24.2% and the viability, T/C [7] was 18.3%. It also gave a viability, T/C [8] of 14.5%, a viability, T/C [9] of 17.8% and a viability, T/C [10] of 14.6%. It also gave a viability, T/C [11] of 22.3%, a viability, T/C [12] of 18.9% and a viability, T/C [13] of 17.4%. The viability, T/C [14] was 13.8%, the viability, T/C [15] was 14.9% and the viability, T/C [16] was 14.3%. It also gave a viability, T/C [17] of 18%, a viability, T/C [18] of 18.2% and a viability, T/C [19] of 20.1%. For the same compound, the viability, T/C [20] was 12.6%, the viability, T/C [21] was 16.4% and the viability, T/C [22] was 14.1%. It also gave a viability, T/C [23] of 19.7%, a viability, T/C [24] of 17.7% and a viability, T/C [25] of 18.5%. The viability, T/C [26] was 15%, the viability, T/C [27] was 14.8% and the viability, T/C [28] was 16.1%.

Compound C=CC(=O)N1CCN(c2nc(OCC3CCCN3C)nc3c(F)c(-c4nc(N)cc(C)c4C(F)(F)F)c(Cl)cc23)C(C)C1 (configuration not stated) + C#Cc1c(F)ccc2cc(O)cc(-c3ncc4c(N5CC6CCC(C5)N6)nc(OCC56CCCN5CC(F)C6)nc4c3F)c12 has an IC50 [1] of under 3.16 nM, an IC50 [2] of under 3.16 nM and an IC50 [3] of under 3.16 nM. For the same compound, the IC50 [4] was under 3.16 nM, the IC50 (curve of first compound, second compound 3.16 µM) was under 3.16 nM and the IC50 (curve of first compound, second compound 10 µM) was under 3.16 nM. For the same compound, the viability, T/C [5] was 29.7%, the viability, T/C [6] was 24% and the viability, T/C [7] was 21.9%. The viability, T/C [8] was 19.4%, the viability, T/C [9] was 19% and the viability, T/C [10] was 22%. For the same compound, the viability, T/C [11] was 28.4%, the viability, T/C [12] was 24.6% and the viability, T/C [13] was 21.2%. For the same compound, the viability, T/C [14] was 18.6%, the viability, T/C [15] was 20.9% and the viability, T/C [16] was 21.3%. It also gave a viability, T/C [17] of 29.6%, a viability, T/C [18] of 24.6% and a viability, T/C [19] of 25.7%. It also gave a viability, T/C [20] of 19.2%, a viability, T/C [21] of 21% and a viability, T/C [22] of 21%. The viability, T/C [23] was 20.5%, the viability, T/C [24] was 21.4% and the viability, T/C [25] was 21.7%. It also gave a viability, T/C [26] of 19.8%, a viability, T/C [27] of 18.8% and a viability, T/C [28] of 17.5%. For the same compound, the viability, T/C (second compound 3.16 µM, first compound 0.00316 µM) was 21.6%, the viability, T/C (second compound 3.16 µM, first compound 0.01 µM) was 18.1% and the viability, T/C (second compound 3.16 µM, first compound 0.0316 µM) was 21%. For the same compound, the viability, T/C (second compound 3.16 µM, first compound 0.1 µM) was 22.5%, the viability, T/C (second compound 3.16 µM, first compound 0.316 µM) was 19% and the viability, T/C (second compound 3.16 µM, first compound 1 µM) was 22.6%. It also gave a viability, T/C (second compound 10 µM, first compound 0.00316 µM) of 17.9%, a viability, T/C (second compound 10 µM, first compound 0.01 µM) of 20.3% and a viability, T/C (second compound 10 µM, first compound 0.0316 µM) of 20.8%. For the same compound, the viability, T/C (second compound 10 µM, first compound 0.1 µM) was 17.5%, the viability, T/C (second compound 10 µM, first compound 0.316 µM) was 20.7% and the viability, T/C (second compound 10 µM, first compound 1 µM) was 17.6%.

With C=CC(=O)N1CCN(c2nc(OCC3CCCN3C)nc3c(F)c(-c4nc(N)cc(C)c4C(F)(F)F)c(Cl)cc23)C(C)C1 (configuration not stated) the viability, T/C (compound 0.00316 µM) was 28% [middle of 12 runs], the viability, T/C (compound 0.01 µM) was 27.2% [middle of 12 runs] and the viability, T/C (compound 0.0316 µM) was 24.1% [middle of 12 runs]. For the same compound, the viability, T/C (compound 0.1 µM) was 24.8% [middle of 12 runs], the viability, T/C (compound 0.316 µM) was 26.7% [middle of 12 runs] and the viability, T/C (compound 1 µM) was 26.5% [middle of 12 runs]. The IC50 (compound alone, run of 06/10/2024) was under 3.16 nM and the IC50 (curve of compound) was under 3.16 nM.
